Experimental data taken from US20050191348A1 (priority 2004, published 2005).
Marks after values point to notes of the source that are not given here.

Tests used:
MAPK = MAPK activation (phospho-p44/42 MAPK immunoblot) in PC12 cells; type: cell-based, rat
Method: (viii) Extracellular signal-regulated kinase (ERK) activity. The kinase activity of the ERKs was measured using the MAPK assay kit (Cell Signaling Technology) according to the manufacturer's protocol. In brief, for kinase activity assays, PC12 cells were grown in 6-well plates (5×10^5 cells/well). Eighteen to twenty-four hours before experiments, the medium was replaced with DMEM with 0.5% FCS and treated as described in the figures. Experimental treatments were performed in 1 ml medium containing 0.5% FCS, with the vehicle or test drugs and/or inhibitors at 37° C., as described in the figures. After treatment, reactions were stopped by placing cells on ice and aspirating the medium. Cells were harvested in 50 mM Tris-HCl, pH 8.0, 150 mM NaCl, 5 mM EDTA, 1 mM DTT, 1% Triton X-100, and protease- and phosphatase-inhibitor cocktails. Protein concentration was determined by the Bradford method. As described previously (Yogev-Falach et al., 2002), each cell lysate, containing 30 μg protein, was separated on 4-12% SDS-polyacrylamide electrophoresis gels, immunoblotted, and identified using phospho-p44/42 MAPK (Thr202/Tyr204) antibody or p44/42 MAPK antibody. Data are representative of three to six independent experiments.
To study the effect of rasagiline on MAPK activation, PC12 cells were treated for 0.5 h with increasing concentrations of rasagiline (0.1, 1 and 10 μM), and quantification of the phospho-MAPK blots were normalized using the total MAPK blots, or PC12 cells were preincubated for 15 min with vehicle alone, or with PD98059 (30 μM) or GF109203X (2.5 μM) and then incubated without or with rasagiline (10 μM) for 0.5 h. Aliquots of cell lysates were then subjected to immunoblot analysis and probed with anti-phospho-MAPK (top blots) and anti-MAPK (bottom blots).
For the effect of propargylamine on MAPK activation, PC12 cells were treated for 0.5 h with increasing concentrations of propargylamine (0.1, 1 and 10 μM). Aliquots of cell lysates were then subjected to immunoblot analysis and probed with anti-phospho-MAPK and anti-MAP kinase. Quantification of the phospho-MAPK were normalized using the total MAPK blots.

sAPPα = sAPPα release into medium of SH-SY5Y neuroblastoma cells; type: cell-based, human; details: 3 h; for sAPPα secretion (fold/basal): 1 μM, SH-SY5Y conditioned media, mean ± SE of three experiments
Method: For the experiments, cells were seeded (2×10^6) onto 100-mm plates (for SH-SY5Y cells) or T75 flasks (for PC12 cells) in culture medium supplemented with full serum for 48 h. The cells were replaced with fresh medium containing 0.5% FCS for an additional 24 h (subconfluent culture), and then the experiments were performed in fresh medium containing 0.5% FCS for the indicated time periods at 37° C. After incubation with various drugs, the conditioned media were collected, centrifuged at 3500 g (10 min, 4° C.) to remove cell debris, and the cleared supernatants were concentrated 10-fold by lyophilization.
(vii) Determination of sAPP. Protein concentrations of cell lysates were assayed using Bradford reagent (Sigma Chemical). Equal amounts of volumes of conditioned medium, standardized to lysate protein, were subjected to […], using either the MAbs 22C11 or 6E10 in 50 mM Tris-HCl, pH 7.4, 150 mM NaCl, containing 0.05% Tween 20 and 1% BSA. Immunoreactivity was detected using anti-mouse IgG-conjugated with HRP and an enhanced chemiluminescence method (Amersham, Pharmacia Biotech, UK). Blots were developed for different times to span a linear range of response, and the relative intensity of immunoreactive bands on the exposed films was quantified by computer-assisted densitometry program (Quantity One, Bio-Rad, Hercules, Calif., USA).
It was of interest to determine whether rasagiline and other propargylamine-containing drugs also regulate APP processing. For this purpose, SH-SY5Y neuroblastoma cells were incubated for 3 h without or with 1 μM of various drugs (TV3326 and its S-isomer TV3279, rasagiline and its S-isomer TVP1022, selegiline, aminoindan), and sAPPα was measured in the media as described in Materials and Methods.
We further characterized, in detail, the effect of rasagiline on APP processing and the signaling pathways that are involved. Thus, SH-SY5Y neuroblastoma cells were incubated for 3 h without or with increasing concentrations of rasagiline (0.1, 1 and 10 μM), and sAPPα was measured in the media as described in Materials and Methods.
For the sAPPα release, SH-SY5Y neuroblastoma cells or PC12 cells were incubated for 3 h without or with increasing concentrations of propargylamine (0.1, 1 and 10 μM), and sAPPα was measured in the media as described in Materials and Methods.

PKC = PKC phosphorylation in PC12 cell lysates, Western blot with p-PKC (pan) antibody; type: cell-based, rat; details: PC12, pre-treatment 2.5 μM
Method: (iv) Immunoblot Analyses. For Western blot analyses, attached cells were washed once in cold PBS and then lysed in 1× nonreducing Laemmli buffer followed by boiling for 3-5 min. Protein content was determined using the Bradford method. Equal amounts of protein were separated by SDS-polyacrylamide gel electrophoresis and blotted onto polyvinylidene difluoride (PVDF) membranes (Millipore). Membranes were treated with blocking buffer (5% dry milk in PBS or 5% dry milk, 0.05% Tween 20 (Sigma) in TBS). Primary antibodies were diluted in PBS or in TBS containing 5% BSA, 0.05% Tween 20 and incubated with membranes for 20 h at 4° C., followed by incubation (1 h at room temperature) in dilutions of horseradish peroxidase (HRP)-conjugated secondary antibodies in the same buffers. Following antibody incubations, membranes were washed in 0.5% Tween 20 in PBS or TBS. Detection was achieved using ECL™ Western Blotting Detection Reagent (Amersham, Pharmacia, Little Chalfort Buckinghamshire, UK). Quantification of results was accomplished by measuring the optical density of the labeled bands from the autoradiograms by scanning laser densitometry using the computerized imaging program Bio-ID (Imager, Bio1D software; Vilber Lourmat, Marne La Vallee, France). The values were normalized to β-actin intensity levels.
Since activation of PKC has been shown previously to modulate cell viability, resulting in protection of neuronal cells, it was of interest to investigate the effects of rasagiline on PKC activation. In one experiment, PC12 cells were untreated or treated with various concentrations of rasagiline (0.1, 1 and 10 μM) for 1 hour. […] Phosphorylation of PKC was analyzed in cell lysates by Western blotting and detected with p-PKC (pan) antibody.
The effect of propargylamine on PKC phosphorylation/activation was investigated as described in Example 2 above.

caspase-3, BAD = assay: Serum free-induced caspase-3 cleavage and BAD levels (rasagiline, data not shown); type: cell-based
[1] = tested on: p-PKC (pan), PKCα and PKCε; assay: PKC translocation to membrane fraction of PC12 cells; type: cell-based, rat; details: PC12, 100 nM, 2 h
Method: (v) PKC translocation. Cells were cultured to confluence and treated for 2 h with either no drug (control), phorbol 12-myristate-13-acetate (PMA) (positive control) or rasagiline. After washing, the cells were harvested, collected by centrifugation (5 min, 1500 rpm), and homogenized by sonication (12 s, 22μ) in homogenization buffer (20 mM Tris-HCl, pH 7.4, 0.32 M sucrose, 2 mM EDTA, 50 mM β-mercaptoethanol) containing a protease inhibitor cocktail (Sigma Aldrich, Sweden). Cytosolic and particulate fractions were separated by ultracentrifugation (30 min, 100,000 g, 4° C.). For the particulate fraction, proteins were extracted by a 45 min incubation on ice in homogenization buffer containing 0.5% Triton X-100. Samples were then sonicated for 1 min and equivalent amounts of protein (15 μg) separated by PAGE followed by blotting onto nitrocellulose paper. Western blotting was performed essentially as described above using antibodies against p-PKC (pan), PKCα and PKCε.
PKC translocation to the membrane fraction upon activation and membrane localization is often used as a marker for PKC activation.

[2] = tested on: Bcl-2 family and PKC isoform mRNA; assay: Gene expression by quantitative real-time RT-PCR in serum-free PC12 cells; type: cell-based, rat
Method: (vi) Total RNA extraction. PC12 cells were cultured in DMEM containing 5% FCS and 10% horse serum until confluence. At the day of the experiment, the medium was replaced with fresh medium without serum and rasagiline or propargylamine at various concentrations were administered for 24 h. At the end of incubation, the medium was removed and isolation of total RNA was performed, using Tri Reagent™ Isolation reagent. Total RNA was treated with DNase-RNase free (Roche Diagnostics, Mannheim, Germany) for 30 min at 37° C. and subsequently extracted by a round of phenol:chlorophorm:isoamylalcohol (25:24:1), followed by one of chloroform. After precipitation with NaOAc (0.3 M) and ethyl alcohol, the RNA pellet was washed with 80% ethyl alcohol (12,000×g) for 10 min and resuspended in 50-100 μl of diethylpyrocarbonate (DEPC)-treated water and incubated for 5-10 min at 56° C. to facilitate resuspension.
(vi) Reverse transcription (RT) and quantitative real-time RT-PCR. In order to confirm the results obtained with the customized cDNA expression micro-array, 2 μg of total RNA were denatured and reverse transcribed using random hexanucleotides (0.5 μg/μl). Secondary structures of the template and primer (total volume of 16 μl) were opened by incubation for 5 min at 70° C. and immediately cooled on ice. Reaction mix (9 μl) containing reaction buffer, dNTP (0.5 mm each), RNAasin™ RNAase inhibitor (Promega) (25U) and M-MLV reverse transcriptase (200U) was added and samples were incubated at 39° C. for 1 h. For every RNA preparation a negative control was run in parallel consisting of a direct amplification of the RNA sample, omitting the RT step. The samples were transferred to 92° C. for 10 min, in order to deactivate the enzyme, and then cooled to 4° C.
Quantitative real-time PCR, using LightCycler and FastStart DNA Master SYBR Green I ready-to use PCR mix, was performed according to the manufacture's protocol (Roche Diagnostics, Mannheim, Germany). cDNA (40 ng) was amplified in 20 μl total volume. The sequences of the primers and the size of the products are described in Table 1. The results are analyzed on the provided program of the LightCycler. The relative expression level of a given mRNA was assessed by normalizing to the housekeeping gene 18S-rRNA and compared with control values.
In this experiment, we examined whether Bcl-2 family proteins mediate the pro-survival effect of rasagiline, using serum-starved rat pheochromocytoma PC12 cell line as a model of neuronal apoptosis. PC12 cells were maintained in full-serum (control), or in serum-free (SF) media in the absence or presence of various concentrations of rasagiline (0.001, 0.1, 1 and 10 μM) for 3 h or 24 h, and gene expression was measured by quantitative real-time RT-PC. The real-time RT-PCR consists of RNA samples isolated from said PC-12 cells. Each gene expression was normalized to the housekeeping gene, 18S-rRNA, since this transcript was reported to be less susceptible to the influence by external factors.
The effect of propargylamine on Bad and Bax mRNA levels was examined as described in Example 5 above.

PC12 cells = details: PC12, 10 μM, 24 h

For `NC1CCc2ccccc21` (centres unmarked) [Aminoindan, aminoindan], the MAPK phosphorylation (MAPK; PC12, 0.1, 1 and 10 μM, 0.5 h) was “did not show such effects”, the “sAPPα secretion (fold/basal)” value (sAPPα) was 1.23 ± 0.32 fold/basal and the “sAPPα released into the medium” value (sAPPα; SH-SY5Y, 0.1, 1 and 10 μM, versus untreated cells) was “did not show such effects”.
`CN(C)CCCn1cc(C2=C(c3c[nH]c4ccccc34)C(=O)NC2=O)c2ccccc21` [GF109203X] was tested, and the “effect on rasagiline-induced MAPK activation” value (MAPK; PC12, preincubation 2.5 μM, rasagiline 10 μM 0.5 h) was “abolished the effect of rasagiline on MAPK activation”, the “effect on propargylamine-induced PKC phosphorylation” value (PKC; propargylamine 1 μM 1 h) was “blocked the effect of propargylamine on PKC phosphorylation” and the “effect on rasagiline-induced PKC phosphorylation” value (PKC; rasagiline 1 μM 1 h) was “significantly reduced rasagiline-induced PKC phosphorylation”. The “effect on rasagiline-induced decrease of BAD” value (caspase-3, BAD) was “blocked” and the “effect on rasagiline suppression of caspase-3 cleavage” value (caspase-3, BAD; data not shown) was “reversed”.
With `COc1cccc(-c2cc(=O)c3ccccc3o2)c1N` [PD98059] the “effect on rasagiline-induced MAPK phosphorylation” value (MAPK; PC12, pretreatment 30 μM, rasagiline 10 μM 0.5 h) was “blocked the rasagiline-induced increase of MAPK phosphorylation”.
With `CCCCCCCCCCCCCC(=O)O[C@@H]1[C@@H](C)[C@@]2(O)[C@@H](C=C(CO)C[C@]3(O)C(=O)C(C)=C[C@@H]23)[C@@H]2C(C)(C)[C@]12OC(C)=O` [PMA, phorbol 12-myristate-13-acetate] the “translocation of PKCα” value [1] was 157%, the “translocation of PKCε” value [1] was 212% and the “translocation of p-PKC (pan)” value [1] was 214%.
For `C#CCN[C@@H]1CCc2ccccc21` [Rasagiline, N-propargyl-(1R)-aminoindan], the “lowest dose giving MAPK activation” value (MAPK; PC12, 0.5 h) was 0.1 µM, the “sAPPα secretion (fold/basal)” value (sAPPα) was 2.97 ± 0.15^b fold/basal and the “increase in sAPPα secretion over the basal levels” value (sAPPα; SH-SY5Y, 10 μM (maximal effect)) was roughly 3.0 fold. The “Bad mRNA reduction” value ([2]; 1 μM, 3 h) was 1.35 fold vs. serum free treatment, the “Bcl-xL mRNA expression increase” value ([2]; 10 μM, 24 h, compared to serum-free culture) was “about 2 fold” and the “Bad mRNA reduction” value ([2]; 0.01 and 0.1 μM, 24 h) was ~2.5 fold vs. serum free culture. The “Bcl-W mRNA expression” value ([2]; 0.1, 1 and 10 μM, 24 h) was 135 % of serum-free culture.
With `C#CCN(C)[C@H](C)Cc1ccccc1` [Selegiline, R-(−)-N-methyl-N-(prop-2-ynyl)-2-aminophenylpropane] the “sAPPα secretion (fold/basal)” value (sAPPα) was 2.03 ± 0.21^c fold/basal.
With `C#CCN[C@H]1CCc2ccc(OC(=O)N(C)CC)cc21` [TV3279] the “sAPPα secretion (fold/basal)” value (sAPPα) was 2.76 ± 0.36^b fold/basal.
With `C#CCN[C@@H]1CCc2ccc(OC(=O)N(C)CC)cc21` [TV3326, (N-propargyl-(3R)aminoindan-5yl)-ethyl methyl carbamate] the “sAPPα secretion (fold/basal)” value (sAPPα) was 2.86 ± 0.35^b fold/basal.
“Aβ1-42: amyloidogenic Aβ peptide, used as toxic insult” was tested, and the cell viability (PC12 cells) was 66 % of control.
